Test results: ChEMBL document CHEMBL3885881, “DrugMatrix”

Species on record: Rattus norvegicus
Assay: DrugMatrix - Regimen: Daily Repeat
Assay type: toxicity, organism-based, Sprague-Dawley
Parameters: regimen Daily Repeat, gender Male, age 6-8 weeks
Conditions: in vivo, po, route oral GAVAGE, vehicle 100 % SALINE; for ABSOLUTE BASOPHIL / ABSOLUTE EOSINOPHIL / ABSOLUTE LYMPHOCYTE / ABSOLUTE MONOCYTE / ABSOLUTE SEGMENTED NEUTROPHIL / BASOPHIL / EOSINOPHIL / ERYTHROCYTE COUNT / HEMATOCRIT / HEMOGLOBIN / LEUKOCYTE COUNT / LYMPHOCYTE / MEAN CORPUSCULAR HEMOGLOBIN / MEAN CORPUSCULAR HEMOGLOBIN CONCENTRATION / MEAN CORPUSCULAR VOLUME / MONOCYTE / NEUTROPHIL / NUCLEATED RED BLOOD CELLS / PLATELET COUNT: tissue Blood; for ALANINE AMINOTRANSFERASE / ALBUMIN / ALKALINE PHOSPHATASE / ASPARTATE AMINOTRANSFERASE / BLOOD UREA NITROGEN / CARBON DIOXIDE / CHLORIDE / CHOLESTEROL / CREATINE PHOSPHOKINASE / CREATININE / GLUCOSE / LACTATE DEHYDROGENASE / LIPASE / PHOSPHORUS / POTASSIUM / SODIUM / TOTAL BILIRUBIN / TOTAL PROTEIN / URIC ACID: tissue Plasma
[1] = 0 mg/kg, 72 h, dose level Control, time 3 day
[2] = 0 mg/kg, […], dose level Control, time 7 day
[3] = 3000 mg/kg, 72 h, dose level Low, time 3 day

SMILES: CCO [ALCOHOL]
- ABSOLUTE BASOPHIL [1]: 0 CELLS/uL
- ABSOLUTE EOSINOPHIL [1]: 66 CELLS/uL
- ABSOLUTE LYMPHOCYTE [1]: 11922.83 CELLS/uL
- ABSOLUTE MONOCYTE [1]: 401.5 CELLS/uL
- ABSOLUTE SEGMENTED NEUTROPHIL [1]: 1526.33 CELLS/uL
- BASOPHIL [1]: 0%
- EOSINOPHIL [1]: 0.5%
- ERYTHROCYTE COUNT [1]: 5.62 x10E6/uL
- HEMATOCRIT [1]: 37.17%
- HEMOGLOBIN [1]: 13.53 G/DL
- LEUKOCYTE COUNT [1]: 13.92 x10E3/uL
- LYMPHOCYTE [1]: 86.17%
- MEAN CORPUSCULAR HEMOGLOBIN [1]: 24.07 pg
- MEAN CORPUSCULAR HEMOGLOBIN CONCENTRATION [1]: 36.42 G/DL
- MEAN CORPUSCULAR VOLUME [1]: 66.1 fL
- MONOCYTE [1]: 3%
- NEUTROPHIL [1]: 10.33%
- NUCLEATED RED BLOOD CELLS [1]: 0 /100WBC
- PLATELET COUNT [1]: 1107 x10E3/uL
- ALANINE AMINOTRANSFERASE [1]: 45.33 u/L
- ALBUMIN [1]: 4.3 G/DL
- ALKALINE PHOSPHATASE [1]: 321.33 u/L
- ASPARTATE AMINOTRANSFERASE [1]: 77.33 u/L
- BLOOD UREA NITROGEN [1]: 14.33 mg/dL
- CARBON DIOXIDE [1]: 32.33 mmol/L
- CHLORIDE [1]: 99.67 MEQ/L
- CHOLESTEROL [1]: 82.33 mg/dL
- CREATINE PHOSPHOKINASE [1]: 205.5 u/L
- CREATININE [1]: 0.19 mg/dL
- GLUCOSE [1]: 150.83 mg/dL
- LACTATE DEHYDROGENASE [1]: 88.17 u/L
- LIPASE [1]: 10.83 u/L
- PHOSPHORUS [1]: 10.9 mg/dL
- POTASSIUM [1]: 5.83 MEQ/L
- SODIUM [1]: 145.15 MEQ/L
- TOTAL BILIRUBIN [1]: 0.12 mg/dL
- TOTAL PROTEIN [1]: 6.22 G/DL
- URIC ACID [1]: 1 mg/dL
- ABSOLUTE BASOPHIL [2]: 0 CELLS/uL
- ABSOLUTE EOSINOPHIL [2]: 22 CELLS/uL
- ABSOLUTE LYMPHOCYTE [2]: 11105.17 CELLS/uL
- ABSOLUTE MONOCYTE [2]: 258.17 CELLS/uL
- ABSOLUTE SEGMENTED NEUTROPHIL [2]: 881.33 CELLS/uL
- BASOPHIL [2]: 0%
- EOSINOPHIL [2]: 0.17%
- ERYTHROCYTE COUNT [2]: 5.29 x10E6/uL
- HEMATOCRIT [2]: 34.03%
- HEMOGLOBIN [2]: 13.67 G/DL
- LEUKOCYTE COUNT [2]: 12.27 x10E3/uL
- LYMPHOCYTE [2]: 90.83%
- MEAN CORPUSCULAR HEMOGLOBIN [2]: 25.9 pg
- MEAN CORPUSCULAR HEMOGLOBIN CONCENTRATION [2]: 40.18 G/DL
- MEAN CORPUSCULAR VOLUME [2]: 64.42 fL
- MONOCYTE [2]: 2.17%
- NEUTROPHIL [2]: 6.83%
- NUCLEATED RED BLOOD CELLS [2]: 0 /100WBC
- PLATELET COUNT [2]: 1159.83 x10E3/uL
- ALANINE AMINOTRANSFERASE [2]: 45.83 u/L
- ALBUMIN [2]: 4.1 G/DL
- ALKALINE PHOSPHATASE [2]: 240 u/L
- ASPARTATE AMINOTRANSFERASE [2]: 88.67 u/L
- BLOOD UREA NITROGEN [2]: 13.67 mg/dL
- CARBON DIOXIDE [2]: 31.83 mmol/L
- CHLORIDE [2]: 96.83 MEQ/L
- CHOLESTEROL [2]: 71.17 mg/dL
- CREATINE PHOSPHOKINASE [2]: 202.5 u/L
- CREATININE [2]: 0.22 mg/dL
- GLUCOSE [2]: 132.67 mg/dL
- LACTATE DEHYDROGENASE [2]: 107.17 u/L
- LIPASE [2]: 10.5 u/L
- PHOSPHORUS [2]: 10.47 mg/dL
- POTASSIUM [2]: 6.23 MEQ/L
- SODIUM [2]: 140.73 MEQ/L
- TOTAL BILIRUBIN [2]: 0.12 mg/dL
- TOTAL PROTEIN [2]: 6.18 G/DL
- URIC ACID [2]: 0.87 mg/dL
- ABSOLUTE BASOPHIL [3]: 0 CELLS/uL
- ABSOLUTE EOSINOPHIL [3]: 0 CELLS/uL
- ABSOLUTE LYMPHOCYTE [3]: 9478 CELLS/uL
- ABSOLUTE MONOCYTE [3]: 154.17 CELLS/uL
- ABSOLUTE SEGMENTED NEUTROPHIL [3]: 701.17 CELLS/uL
- BASOPHIL [3]: 0%
- EOSINOPHIL [3]: 0%
- ERYTHROCYTE COUNT [3]: 5.61 x10E6/uL
- HEMATOCRIT [3]: 37.43%
- HEMOGLOBIN [3]: 13.38 G/DL
- LEUKOCYTE COUNT [3]: 10.33 x10E3/uL
- LYMPHOCYTE [3]: 91.5%
- MEAN CORPUSCULAR HEMOGLOBIN [3]: 23.87 pg
- MEAN CORPUSCULAR HEMOGLOBIN CONCENTRATION [3]: 35.78 G/DL
- MEAN CORPUSCULAR VOLUME [3]: 66.65 fL
- MONOCYTE [3]: 1.5%
- NEUTROPHIL [3]: 7%
- NUCLEATED RED BLOOD CELLS [3]: 0 /100WBC
- PLATELET COUNT [3]: 1014.67 x10E3/uL
- ALANINE AMINOTRANSFERASE [3]: 55.33 u/L
- ALBUMIN [3]: 4.22 G/DL
- ALKALINE PHOSPHATASE [3]: 351.5 u/L
- ASPARTATE AMINOTRANSFERASE [3]: 80.33 u/L
- BLOOD UREA NITROGEN [3]: 10.17 mg/dL
- CARBON DIOXIDE [3]: 30.17 mmol/L
- CHLORIDE [3]: 99.8 MEQ/L
- CHOLESTEROL [3]: 73.17 mg/dL
- CREATINE PHOSPHOKINASE [3]: 216.33 u/L
- CREATININE [3]: 0.24 mg/dL
- GLUCOSE [3]: 152.67 mg/dL
- LACTATE DEHYDROGENASE [3]: 102.83 u/L
- LIPASE [3]: 8.17 u/L
- PHOSPHORUS [3]: 10.45 mg/dL
- POTASSIUM [3]: 5.55 MEQ/L
- SODIUM [3]: 144.46 MEQ/L
- TOTAL BILIRUBIN [3]: 0.1 mg/dL
- TOTAL PROTEIN [3]: 6.13 G/DL
- URIC ACID [3]: 0.87 mg/dL
